PMC6881072, “The repositioning of epigenetic probes/inhibitors identifies new anti-schistosomal lead compounds and chemotherapeutic targets” (PLoS Neglected Tropical Diseases, 2019)
Entries after “also recorded” stand apart in the source; their conditions may differ. Like-named read-outs stand apart in the source and are kept apart here.

Legend:
[1] = test system: adult male and female schistosome pairs; experiment: In vitro adult schistosome screening (WHO/TDR motility, egg counts); type: cell-based, Schistosoma mansoni; settings: for EC50: Schistosoma mansoni, 72 h
Method: In vitro screening was replicated three times on different dates to account for any biological variation. Briefly three adult worm pairs/well (48-well tissue culture plate format) were placed into DMEM (Gibco, Paisley, UK) supplemented with 10% (v/v) FCS (Gibco, Paisley, UK), 1% (v/v) L-glutamine (Gibco, Paisley, UK) and an antibiotic mixture (150 Units/ml penicillin and 150 μg/ml streptomycin; Gibco, UK). DMSO (0.5% negative control), AUR (10 μM concentration in 0.5% DMSO; positive control) and two-fold titrations of SGC compounds (50 μM– 6.25 μM or 50 μM– 0.05 μM; in 0.5% DMSO max) were added, and together, these adult worm/compound co-cultures were incubated at 37°C for 72 h in a humidified atmosphere containing 5% CO2. Following compound incubation, WHO/TDR readouts of adult worm motility, abundance of H3K36me2 (LLY-507 and BAY-598 treated worms only) in histone extracts and egg counts/well were recorded at 72 h.

[2] = test system: S. mansoni schistosomula; experiment: In vitro schistosomula screening (Roboworm platform), phenotype and motility; type: cell-based, Schistosoma mansoni; settings: for EC50: Schistosoma mansoni; for hit / activity against schistosomula, single-point screen: hit cut-offs phenotype -0.15, motility -0.35
Method: Briefly, 384-well tissue culture plates (Perkin Elmer, cat 6007460), containing 20 μl of Basch medium, were wet-stamped using a Biomek NX^P liquid handling platform (Beckman Coulter, UK) with negative (0.625% dimethyl sulfoxide, DMSO) and positive controls (AUR and PZQ at 10 μM final concentration in 0.625% DMSO) as well as 37 SGC compounds (at 10 μM final concentration in 0.625% DMSO). […] To each pre-loaded well (single concentration or titration screens), a total of 100–120 mechanically transformed schistosomula (in 60 μl) were deposited via a WellMate (Thermo Scientific, UK). Schistosomula/compound co-cultures (80 μl in total) were then incubated at 37°C for 72 h in a humidified atmosphere containing 5% CO2. At 72 h, tissue culture plates (containing schistosomula/compound co-cultures) were imaged under the same conditions (37°C in a humidified atmosphere containing 5% CO2) using an ImageXpressXL high content imager (Molecular Devices, UK) with subsequent images processed for phenotype and motility as previously reported and successfully implemented by us at Aberystwyth University. Single point schistosomula screens (10 μM) were repeated two or three times whereas dose response titrations were performed once. Zˊ values obtained from all schistosomula screens ranged from 0.27–0.48 (mean = 0.40) for phenotype and 0.41–0.56 (mean = 0.48) for motility.

[3] = HepG2 cell cytotoxicity, MTT assay; type: cell-based, Human; settings: human, read-out: CC50 (HepG2) (95% Confidence Intervals)
Method: Human Hepatocyte Carcinoma (HepG2) cells (Sigma Aldrich, UK) were utilized to assess SGC epigenetic probe cell cytotoxicity in the application of the MTT (3-(4,5-dimethylthiazol-2-yl)-2,5-diphenyltetrazolium bromide) assay. Briefly, cells were passaged at 70–80% confluence and seeded (20,000 cells/ 50 μL per well) in a 96-well, black-sided, clear-bottomed falcon plate (Fisher Scientific, UK) with the final plate column (8 wells) being treated as a blank (media only). Following a 24 h incubation (5% CO2, 37°C, humidified), HepG2 cells were then treated with 50 μL of pre-warmed media (37°C) containing SGC EPs/EIs at 200 μM to 0.02 μM (final concentration 100 μM, 10 μM, 1 μM, 0.1 μM and 0.01 μM). Three positive (1% Triton X-100) and negative (1% DMSO) control wells per plate were additionally included.
After addition of compounds, each plate was then incubated for a further 20 h before application of MTT for assessment of overt compound cytotoxicity using the MTT assay. The MTT assay was read using the POLARstar Omega (BMG LabTech, UK) plate reader at an absorbance of 570 nm. CC50s were calculated in GraphPad Prism.

[4] = motility, adult females, read-out: ADULT EC50 (95% Confidence Intervals) Females
[5] = motility, adult males, read-out: ADULT EC50 (95% Confidence Intervals) Males
[6] = CC50 HepG2 / schistosomula motility EC50
[7] = CC50 HepG2 / schistosomula phenotype EC50
[8] = 72 h, two-fold titration 10 μM–0.625 μM, single replicate, approximate, read-out: SCHISTOSOMULA EC50 Motility
[9] = 72 h, two-fold titration 10 μM–0.625 μM, single replicate, approximate, read-out: SCHISTOSOMULA EC50 Phenotype
[10] = read-out: ADULT EC50 (95% Confidence Intervals) Females
[11] = read-out: ADULT EC50 (95% Confidence Intervals) Males
[12] = 72 h, read-out: SCHISTOSOMULA EC50 Motility
[13] = 72 h, read-out: SCHISTOSOMULA EC50 Phenotype

| Compound | SELECTIVITY INDEX Adult Females ([1]; CC50 HepG2 / adult female EC50) | SELECTIVITY INDEX Adult Males ([1]; CC50 HepG2 / adult male EC50) | EC50 [1, 4] [µM] | EC50 [1, 5] [µM] | SELECTIVITY INDEX Schistosomula Motility [2, 6] | SELECTIVITY INDEX Schistosomula Phenotype [2, 7] | EC50 [2, 8] [µM] | EC50 [2, 9] [µM] | CC50 at 20 h ([3]; HepG2 cells) [µM] | hit / activity against schistosomula, single-point screen ([2]; 10 μM, 72 h) | other results |
| --- | --- | --- | --- | --- | --- | --- | --- | --- | --- | --- | --- |
| Clc1cc2c(NC3CCCC3)nnc(-c3ccncc3)c2cc1Cl [A-196, 8,9-dichloro-N-cyclopentyl-5-(pyridin-4-yl)-3,4-diaza-bicyclo[4.4.0]deca-1(10),2,4,6,8-pentaen-2-amine] | 3.13 | 2.24 | 16 | 22.3 | 10.45 | 36.00 | 4.78 | 1.39 | > 50 |  |  |
| CCN(C(=O)CO)C1CN(C(=Nc2cccc(OC(F)F)c2)NC#N)N=C1c1ccccc1 (stereo not drawn) [BAY-369] |  |  |  |  |  |  |  |  |  | None of these chemotype controls demonstrated anti-schistosomula activity; also recorded: is not |  |
| CC(=O)Nc1ccc(C(=O)Nc2ccccc2N)cc1 [CI-994] |  |  |  |  |  |  |  |  |  | non-hit |  |
| CCOC(=O)CCNc1cc(N2CCc3ccccc3CC2)nc(-c2cccnc2)n1 [GSKJ5] |  |  |  |  |  |  |  |  |  | None of these chemotype controls demonstrated anti-schistosomula activity |  |
| CCn1cc(-c2cccc(C(F)(F)F)c2)c2sc(C(=N)NC3CCS(=O)(=O)CC3)cc2c1=O [I-BRD9, N-(1,1-dioxidotetrahydro-2H-thiopyran-4-yl)-5-ethyl-4-oxo-7-(3-(trifluoromethyl)phenyl)-4,5-dihydrothieno[3,2-c]pyridine-2-carboximidamide] | 1.31 | 1.10 | 24 | 28.5 | 7.61 | 24.44 | 4.13 | 1.29 | 31.4 |  |  |
| CCC(=O)N1CCOc2c(cc(-c3ccc(OC)c(OC)c3)cc2OC[C@H]2CCCN(C)C2)C1 [I-CBP112, 1-[7-(3,4-dimethoxyphenyl)-9-{[(3S)-1-methylpiperidin-3-yl]methoxy}-2,3,4,5-tetrahydro-1,4-benzoxazepin-4-yl]propan-1-one] |  |  |  |  |  |  |  |  |  | did not |  |
| Cc1sc2c(c1C)C(c1ccc(Cl)cc1)=N[C@@H](CC(=O)OC(C)(C)C)c1nnc(C)n1-2 [JQ1, [(S)-4-(4-Chloro-phenyl)-2,3,9-trimethyl-6H-1-thia-5,7,8,9a-tetraaza-cyclopenta[e]azulen-6-yl]-acetic acid tert-butyl este] | 0.73 | 0.92 |  |  | 5.53 | 3.56 |  |  |  |  | EC50 [1, 10]: 22.8 µM; EC50 [1, 11]: 18.3 µM; EC50 [2, 12]: 3.04 µM; EC50 [2, 13]: 4.72 µM; CC50 at 20 h [3]: 16.8 µM |
| O=C(/C=C/c1ccc(CN(CCO)CCc2c[nH]c3ccccc23)cc1)NO [LAQ824] | 0.95 | 0.63 | 16.5 | 25 | 6.40 | 7.04 | 2.45 | 2.22 | 15.6 | hit |  |
| CC(C)Oc1ccc(-c2c[nH]cc2CN(C)CCN)cc1 [MS023, 3-(((2-amino-ethyl)-methyl-amino)-methyl)-4-(4-(1-methyl-ethoxy)-phenyl)-1H-pyrrole] | 0.62 | 0.62 | 26.3 | 26.2 | 2.52 | 4.14 | 6.45 | 3.92 | 16.2 |  |  |
| CCCS(=O)(=O)c1nc(NC2CC2)cc(-c2ccc3c(ccn3C3CC(C)(C)NC(C)(C)C3)c2)n1 [NVS-CECR2-1, N-cyclopropyl-2-propylsulfonyl-6-[1-(2,2,6,6-tetramethylpiperidin-4-yl)indol-5-yl]pyrimidin-4-amine] | 1.73 | 3.11 |  |  | 3.60 | 4.98 |  |  |  |  | EC50 [1, 10]: 5.21 µM; EC50 [1, 11]: 2.9 µM; schistosomula phenotype by microscopic assessment ([2]; 10 μM, 72 h): phenotypes comparable to auranofin; EC50 [2, 12]: 2.5 µM; EC50 [2, 13]: 1.81 µM; CC50 at 20 h [3]: 9.03 µM |
| COc1ccc(CCc2nc3cc(-c4c(C)noc4C)ccc3n2CC(C)N2CCOCC2)cc1Cl (stereo not drawn) [SGC-CBP30, 8-(3-chloro-4-methoxy-phenethyl)-4-(3,5-dimethyl-isoxazol-4-yl)-9-(2-(morpholin-4-yl)-propyl)-7,9-diaza-bicyclo[4.3.0]nona-1(6),2,4,7-tetraene] |  |  | 31.2 | 33.5 |  |  | 4.99 | 3.19 | > 50 | demonstrated activity against schistosomula | S[…] Adult Females ([1]; CC50 HepG2 / adult female EC50): 1.6; S[…] Adult Males ([1]; CC50 HepG2 / adult male EC50): 1.49; S[…] Schistosomula Motility [2, 6]: 10.03; S[…] Schistosomula Phenotype [2, 7]: 15.69 |
| CCCc1cc(C)[nH]c(=O)c1CNC(=O)c1cc(-c2ccc(N3CCN(C(C)C)CC3)nc2)cc2c1cnn2C(C)C [UNC1999, N-[(6-methyl-2-oxo-4-propyl-1,2-dihydropyridin-3-yl)methyl]-1-(propan-2-yl)-6-{6-[4-(propan-2-yl)piperazin-1-yl]pyridin-3-yl}-1H-indazole-4-carboxamide] | 1.95 | 2.32 | 16.1 | 13.5 | 11.16 | 7.48 | 2.82 | 4.2 | 31.4 | are hits against schistosomula |  |
| CCCc1cc(C)n(C)c(=O)c1CN(C)C(=O)c1cc(-c2ccc(N3CCN(C(C)C)CC3)nc2)cc2c1cnn2C(C)C [UNC2400] |  |  |  |  |  |  |  |  |  | None of these chemotype controls demonstrated anti-schistosomula activity |  |
